Measured values as given in the supplement of paper PMC10307832.

What was measured:
Experiment in all cases: relative viability (nuclei count vs DMSO), 5 days (fraction); higher = more cells survive
Bortezomib + Navitoclax = compound: CC(C)C[C@H](NC(=O)[C@H](Cc1ccccc1)NC(=O)c1cnccn1)B(O)O [Bortezomib] + CC1(C)CCC(c2ccc(Cl)cc2)=C(CN2CCN(c3ccc(C(=O)NS(=O)(=O)c4ccc(N[C@H](CCN5CCOCC5)CSc5ccccc5)c(S(=O)(=O)C(F)(F)F)c4)cc3)CC2)C1 [Navitoclax] (partner 0.5 µM)
How it was run: (§1)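 Relative viability divides the nuclei count in treated wells by that in vehicle wells. Lung cancer cell lines were seeded in 1536-well plates, dosed by pin tool the next day, and fixed and stained after 5 days in one step with final 0.05% Triton X-100, 1% formaldehyde and 1 ug/ml Hoechst. Dosing was a single drug or a fixed anchor-drug dose plus five library-drug doses (not always all listed) in √10 steps, and values are medians of duplicate plates imaged at 4×.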

[1] = compound: CC1=CC(=NN1)NC2=CC(=NC(=N2)/C=C/C3=CC=CC=C3)N4CCN(CC4)C + Cc1nc(NC(=O)N2CCC[C@H]2C(N)=O)sc1-c1ccnc(C(C)(C)C(F)(F)F)c1 [Alpelisib] (partner 2 µM)
How it was run: as §1

Obatoclax + Pictilisib = compound: COC1=CC(c2cc3ccccc3[nH]2)=N/C1=C\c1[nH]c(C)cc1C [Obatoclax] + CS(=O)(=O)N1CCN(Cc2cc3nc(-c4cccc5[nH]ncc45)nc(N4CCOCC4)c3s2)CC1 [Pictilisib] (partner 1 µM)
How it was run: as §1

Bortezomib + Luminespib = compound: CC(C)C[C@H](NC(=O)[C@H](Cc1ccccc1)NC(=O)c1cnccn1)B(O)O [Bortezomib] + CCNC(=O)c1noc(-c2cc(C(C)C)c(O)cc2O)c1-c1ccc(CN2CCOCC2)cc1 [Luminespib] (partner 0.01 µM)
How it was run: as §1

Cell Line | relative viability (Bortezomib + Navitoclax; first compound 0.0002 µM) | relative viability (Bortezomib + Navitoclax; first compound 0.000632 µM) | relative viability (Bortezomib + Navitoclax; first compound 0.002 µM) | relative viability (Bortezomib + Navitoclax; first compound 0.006325 µM) | relative viability (Bortezomib + Navitoclax; first compound 0.02 µM) | relative viability ([1]; first compound 0.08 µM) | relative viability ([1]; first compound 0.253 µM) | relative viability ([1]; first compound 0.8 µM) | relative viability ([1]; first compound 2.53 µM) | relative viability ([1]; first compound 8 µM) | relative viability (Obatoclax + Pictilisib; first compound 0.01 µM) | relative viability (Obatoclax + Pictilisib; first compound 0.03162 µM) | relative viability (Obatoclax + Pictilisib; first compound 0.1 µM) | relative viability (Obatoclax + Pictilisib; first compound 0.3162 µM) | relative viability (Obatoclax + Pictilisib; first compound 1 µM) | relative viability (Bortezomib + Luminespib; first compound 0.0002 µM) | relative viability (Bortezomib + Luminespib; first compound 0.000632 µM) | relative viability (Bortezomib + Luminespib; first compound 0.002 µM) | relative viability (Bortezomib + Luminespib; first compound 0.006325 µM) | relative viability (Bortezomib + Luminespib; first compound 0.02 µM)
NCI-H727 | 0.455 | 0.511 | 0.541 | 0.167 | 0.103 | 0.586 | 0.54 | 0.529 | 0.377 | 0.167 | 0.33 | 0.456 | 0.701 | 0.339 | 0.253 | 0.374 | 0.321 | 0.358 | 0.382 | 0.279
NCI-H1944 | 1.06 | 0.992 | 1.12 | 1.05 | 0.887 | 0.816 | 0.995 | 0.759 | 0.568 | 0.304 | 0.34 | 0.332 | 0.337 | 0.295 | 0.336 | 0.715 | 0.697 | 0.763 | 0.548 | 0.167
NCI-H1437 | 1.08 | 1.09 | 1.1 | 0.118 | 0.123 | 1.02 | 1.01 | 0.881 | 0.972 | 0.285 | 0.374 | 0.436 | 0.495 | 0.452 | 0.378 | 1.11 | 1.07 | 1.14 | 0.165 | 0.155
NCI-H441 | 0.4 | 0.612 | 0.31 | 0.17 | 0.143 | 0.632 | 0.578 | 0.484 | 0.157 | 0.121 | 0.442 | 0.451 | 0.412 | 0.338 | 0.348 | 0.331 | 0.341 | 0.236 | 0.159 | 0.168
EMC-BAC-2 | 1.13 | 1.2 | 1.28 | 0.595 | 0.171 | 0.748 | 0.717 | 0.662 | 0.521 | 0.154 | 0.539 | 0.559 | 0.521 | 0.522 | 0.51 | 1.21 | 1.11 | 1.17 | 0.441 | 0.208
NCI-H647 | 0.997 | 1.1 | 0.619 | 0.0302 | 0.0207 | 0.927 | 1.11 | 0.782 | 0.05 | 0.0332 | 0.469 | 0.393 | 0.118 | 0.33 | 0.153 | 0.198 | 0.294 | 0.136 | 0.0557 | 0.0467
CAL-12T | 1.27 | 1.14 | 1.26 | 0.19 | 0.123 | 1.04 | 1.21 | 1.24 | 0.339 | 0.121 | 0.395 | 0.472 | 0.396 | 0.223 | 0.395 | 0.121 | 0.447 | 0.412 | 0.599 | 0.105
NCI-H1792 | 0.622 | 0.582 | 0.638 | 0.633 | 0.582 | 0.648 | 0.8 | 0.726 | 0.475 | 0.213 | 0.31 | 0.26 | – | 0.281 | 0.377 | 0.321 | 0.452 | 0.282 | 0.451 | 0.229
H3255 | 0.533 | 0.557 | 0.557 | 0.105 | 0.0892 | 0.753 | 0.735 | 0.772 | 0.593 | 0.182 | 0.476 | 0.491 | 0.572 | 0.456 | 0.434 | 0.765 | 0.856 | 1.02 | 0.386 | 0.271
HCC-78 | 0.766 | 0.794 | 0.467 | 0.16 | 0.178 | 0.315 | 0.371 | 0.295 | 0.275 | 0.117 | 0.179 | 0.207 | – | 0.158 | 0.2 | – | – | – | – | –
EBC-1 | 0.439 | 0.299 | 0.195 | 0.0921 | 0.104 | 0.83 | 0.87 | 0.788 | 0.183 | 0.128 | 0.376 | 0.284 | 0.257 | 0.214 | 0.177 | – | – | – | – | –
NCI-H2405 | 0.769 | – | 0.134 | 0.0865 | 0.113 | 0.687 | 0.6 | 0.983 | 0.414 | 0.148 | 0.508 | 0.461 | – | 0.497 | 0.392 | 0.685 | 0.763 | 0.615 | 0.227 | 0.189
A549 | 1.14 | 1.22 | 1.07 | 0.0316 | 0.0335 | 0.685 | 0.684 | 0.398 | 0.0413 | 0.0242 | 0.509 | 0.7 | 0.448 | 0.442 | 0.0671 | – | – | – | – | –
NCI-H3122 | 1.01 | 1.04 | 1.06 | 0.625 | 0.167 | 0.769 | 0.799 | 0.902 | 0.621 | 0.257 | 0.575 | 0.634 | 0.767 | 0.615 | 0.497 | 0.103 | 0.0765 | 0.105 | 0.118 | 0.113
NCI-H1563 | – | – | – | – | – | 0.896 | 0.893 | 0.782 | 0.555 | 0.392 | 0.615 | 0.639 | 0.644 | 0.655 | 0.634 | 0.47 | 0.527 | 0.562 | 0.449 | 0.331
HCC-44 | 0.96 | 0.932 | 0.94 | 0.225 | 0.192 | 0.784 | 0.879 | 0.675 | 0.281 | 0.0774 | 0.69 | 0.552 | 0.577 | 0.583 | 0.246 | 0.983 | 0.984 | 0.585 | 0.187 | 0.197
PC-3 [JPC-3] | 0.783 | 0.842 | 0.724 | 0.44 | 0.139 | 1.08 | 1.15 | 1.04 | 1 | 0.78 | 0.794 | 0.676 | 0.819 | 0.685 | 0.834 | 0.663 | 0.669 | 0.505 | 0.226 | 0.127
